{
  "source": "patent US4666897A",
  "about": "“Inhibition of mammalian collagenolytic enzymes by tetracyclines” (Research Foundation of State University, priority 1983, dated 1987)",
  "key": {"[1]": {"tested_on": "GCF collagenase and gingival disease in diabetic twins", "experiment": "Human gingival crevicular fluid (GCF) study, diabetic twin brothers", "assay_type": "in vivo", "conditions": "7 days of treatment", "method": "(§1) In a separate study involving humans, gingival crevicular fluid (GCF) samples were collected on filter paper strips inserted into 8 interproximal pockets of selected teeth in the maxillary arch of two twin brothers with juvenile-onset (insulin-dependent) diabetes mellitus. Fluid volume was immediately determined on a modified Periotron (Model 6000, Harco Electronics Ltd., Winnipeg, Canada); then incubated with 10 μl (^3 H-methyl) collagen (20,675 DPM) and 70 μl buffer (50 mM Tris-HCl, pH 7.8, containing 0.2 M sodium chloride and 5 mM calcium chloride). The GCF samples (or reagent blanks or trypsin controls) were incubated at 27° C. for 18 hours with gentle shaking. The reaction was stopped and undigested collagen precipitated by adding 10 μl 0.1 M phenanthroline in dioxane/water (1:1, v/v), 10 μl of nonradioactive methylated carrier collagen (2 mg/ml) in 50 mM Tris-HCl buffer containing 1M NaCl (pH 7.0), and 100 μl dioxane. After mixing, the radiolabeled collagen degradation products were collected by filtration and counted in a liquid scintillation spectrometer (Golub, et. al., 1976, J. Dent. Res., 55, 1049). Using this technique, the reaction blank (no enzyme or GCF added) released about 10% of the total substrate counts; 2-20 ng bacterial collagenase produced a linear increase in the release of radioactive counts from the ^3 H-collagen substrate (the 20 ng level of enzyme degraded 60% of the collagen substrate); and 50 ng trypsin released less than 1% of the counts above blank values. GCF collagenase activity was expressed as units of equivalent activity of vertebrate collagenase (obtained from New England Nuclear, Cat. No. NEK-016); 1 unit was operationally defined as the amount of enzyme that degrades 1 μg of collagen per hour at 27° C.\nFour additional GCF samples were collected from other maxillary pockets of the same diabetic twin brothers on filter paper strips, their volume determined (see above), and collagenolytic activity assessed using the same procedure described above but with a different substrate (10 μl of (^3 H-propionate) collagen, NET-660, New England Nuclear Corp., Boston, Mass., 302,000 DPM).\nHalf of the 12 GCF samples per subject were activated by pretreatment with 1.04 uM trypsin followed by the addition of a 5-fold molar excess of soybean trypsin inhibitor. Samples were selected to be treated or not treated with trypsin by matching them for Gingival Index (Loe and Silness, Acta. Odont. Scand., 21, 533-551 (1967)), GCF flow, and for pocket depth; the clincal parameters (GI, PD) were measured immediately after GCF collection. All measurements were carried out immediately before antibiotic coverage and after 7 days of treatment with either pencillin G (lg. per day; patient three) or the tetracycline minocycline (200 mg/day; patient one)."}, "[2]": {"tested_on": "GCF collagenase and gingival disease in non-diabetic male", "experiment": "Human GCF study, non-diabetic", "assay_type": "in vivo", "method": "as §1\n[…] PD=4.2 mm±0.3), and GCF collagenolytic activity was measured as described above. […] Two additional GCF samples were collected from the same 4 mm pocket, in this patient, before and after minocycline therapy. These samples were incubated with 10 μl ^3 H-collagen for 18 hours (22° C.), then thermally denatured and the collagen subunits and collagenase digestion products were separated by SDS-polyacrylamide gel electrophoresis (Nicoll, et. al., Experientia., 37, 315-317 (1981)). The gels were processed for fluorography (see Sodek, et. al., J. Periodontal. Res., 16, 425-433 (1981)) and exposed to Kodak X A R-5 film for 3 days."}, "[3]": {"tested_on": "fetal rat bones (radii and ulnae) in organ culture", "experiment": "PTH-induced bone resorption in organ culture (45calcium release)", "assay_type": "cell-based", "method": "The technique used to assess bone resorption is based on monitoring the release of radioactive calcium, previously incorporated by embryonic bones in vivo, during organ culture. Pregnant Sprague-Dawley rats were injected subcutaneously with 200 μCi of ^45 calcium chloride on the 18th day of gestation. The following day, the animals were killed, the fetuses removed, and the radii and ulnae dissected under aseptic conditions. […] The bones were then randomly distributed and each bone, either a radius or ulna, was incubated in 0.5 ml of culture media alone or in a media containing parathyroid hormone (PTH: human synthetic 1-34 peptide, Beckman Instruments, Inc., Palo Alto, California) added in a final concentration of 1.0 μg/ml; the experimental bones were incubated in the PTH containing medium to which was added different concentrations (0.2-300 μg/ml) of the antibiotics to be tested. The bones were cultured for 5 days, with the media being changed after day 2, and the incubation terminated. The bones were decalcified in 0.2 ml of 5% trichloroacetic acid and the ^45 calcium content of the residual bones and of the culture media was measured as described previously. (Werner and Raisz, Endocrinology, 90, 752 (1972 ) and Gomes, et. al., Calc. Tiss. Res., 19, 285 (1976)). The ^45 calcium released into the media was calculated as a percentage of the total radioactive calcium measured in the bones."}, "[4]": {"conditions": "penicillin G 1 g per day (P. D.) or minocycline 200 mg/day (K. D.)"}, "[5]": {"conditions": "GCF from the same 4 mm pocket before and after therapy"}, "[6]": {"conditions": "Table 3, PTH + 2 μg/ml minocycline + 100 μg/ml Pen.-Strep."}, "[7]": {"conditions": "Table 3, PTH + 2 μg/ml minocycline + 300 μg/ml Pen.-Strep."}, "[8]": {"conditions": "Table 3, PTH + 20 μg/ml minocycline + 100 μg/ml Pen.-Strep."}},
  "data": [
    {"compound": "CN(C)c1ccc(O)c2c1C[C@H]1C[C@H]3[C@H](N(C)C)C(O)=C(C(N)=O)C(=O)[C@@]3(O)C(O)=C1C2=O", "note": "[minocycline, Minocycline]", "values": [
      {"measurement": "GCF flow", "setting": "[1]; [4]", "result": "significant reductions"},
      {"measurement": "Gram-positive and Gram-negative organisms in the pockets", "setting": "[1]; [4]", "result": "marked reduction in Gram-negative"},
      {"measurement": "active GCF collagenase", "setting": "[1]; [4]", "result": "significant reductions"},
      {"measurement": "pocket depth", "setting": "[1]; [4]", "result": "no decrease"},
      {"measurement": "total GCF collagenase (after trypsin pretreatment)", "setting": "[1]; [4]", "result": "significant reductions"},
      {"measurement": "Gingival Index (G. I.)", "setting": "[1]; penicillin G 1 g per day (patient three) or minocycline 200 mg/day (patient one)", "result": "significant reductions"},
      {"measurement": "densitometric analysis of fluorographs: degradation products", "setting": "[2]; GCF before and after therapy", "result": "reduced the percentage of the total radiolabeled collagenous material present as degradation products"},
      {"measurement": "breakdown of intact ^3 H-collagen by GCF (SDS-PAGE fluorography)", "setting": "[2]; [5]", "result": "reduced the breakdown of the intact collagen"},
      {"measurement": "production of α^A and α^B collagen digestion fragments by GCF (fluorography)", "setting": "[2]; [5]", "result": "inhibited the production"},
      {"measurement": "pocket depth", "setting": "[2]; non-diabetic patient two", "result": "essentially unchanged"},
      {"measurement": "reduction of G. I.", "setting": "[2]; non-diabetic patient two", "result": 26, "unit": "%"},
      {"measurement": "reduction of GCF flow", "setting": "[2]; non-diabetic patient two", "result": 71, "unit": "%"},
      {"measurement": "reduction of trypsin-activated collagenase in GCF", "setting": "[2]; non-diabetic patient two", "result": 59, "unit": "%"},
      {"measurement": "reduction of active collagenase in GCF", "setting": "[2]; non-diabetic patient two, minocycline therapy as in (a)", "result": 86, "unit": "%"},
      {"measurement": "^45 Calcium in Fetal Bone Released into Media (%) after 2 days incubation", "setting": "[3]; Table 3, PTH + 0.2 μg/ml", "result": "42.6 ± 0.6", "unit": "%"},
      {"measurement": "^45 Calcium in fetal bone Released into media (%) after 5 days incubation", "setting": "[3]; Table 3, PTH + 0.2 μg/ml", "result": "75.6 ± 1.0", "unit": "%"},
      {"measurement": "^45 Calcium in Fetal Bone Released into Media (%) after 2 days incubation", "setting": "[3]; Table 3, PTH + 2 μg/ml", "result": "44.2 ± 2.1", "unit": "%"},
      {"measurement": "^45 Calcium in fetal bone Released into media (%) after 5 days incubation", "setting": "[3]; Table 3, PTH + 2 μg/ml", "result": "74.7 ± 3.1", "unit": "%"},
      {"measurement": "^45 Calcium in Fetal Bone Released into Media (%) after 2 days incubation", "setting": "[3]; [6]", "result": "42.9 ± 1.9", "unit": "%"},
      {"measurement": "^45 Calcium in fetal bone Released into media (%) after 5 days incubation", "setting": "[3]; [6]", "result": "70.2 ± 3.7", "unit": "%"},
      {"measurement": "^45 Calcium in Fetal Bone Released into Media (%) after 2 days incubation", "setting": "[3]; [7]", "result": "45.7 ± 2.5", "unit": "%"},
      {"measurement": "^45 Calcium in fetal bone Released into media (%) after 5 days incubation", "setting": "[3]; [7]", "result": "71.8 ± 3.5", "unit": "%"},
      {"measurement": "^45 Calcium in Fetal Bone Released into Media (%) after 2 days incubation", "setting": "[3]; Table 3, PTH + 20 μg/ml", "result": "22.5 ± 1.6", "unit": "%"},
      {"measurement": "^45 Calcium in fetal bone Released into media (%) after 5 days incubation", "setting": "[3]; Table 3, PTH + 20 μg/ml", "result": "29.2 ± 1.8", "unit": "%"},
      {"measurement": "^45 Calcium in Fetal Bone Released into Media (%) after 2 days incubation", "setting": "[3]; [8]", "result": "21.5 ± 1.5", "unit": "%"},
      {"measurement": "^45 Calcium in fetal bone Released into media (%) after 5 days incubation", "setting": "[3]; [8]", "result": "31.9 ± 2.1", "unit": "%"},
      {"measurement": "^45 Calcium in fetal bone Released into media (%) after 5 days incubation", "setting": "[3]; Table 3, PTH + 20 μg/ml minocycline + 300 μg/ml Pen.-Strep.", "result": "33.5 ± 1.3", "unit": "%"},
      {"measurement": "^45 Calcium in Fetal Bone Released into Media (%) after 2 days incubation", "setting": "[3]; Table 3, PTH + 60 μg/ml", "result": "19.4 ± 0.9", "unit": "%"},
      {"measurement": "^45 Calcium in fetal bone Released into media (%) after 5 days incubation", "setting": "[3]; Table 3, PTH + 60 μg/ml", "result": "24.5 ± 1.1", "unit": "%"},
      {"measurement": "^45 Calcium in Fetal Bone Released into Media (%) after 2 days incubation", "setting": "[3]; Table 3, PTH + 200 μg/ml", "result": "17.6 ± 0.4", "unit": "%"},
      {"measurement": "^45 Calcium in fetal bone Released into media (%) after 5 days incubation", "setting": "[3]; Table 3, PTH + 200 μg/ml", "result": "22.3 ± 0.5", "unit": "%"},
      {"measurement": "^45 Calcium in Fetal Bone Released into Media (%) after 2 days incubation", "setting": "[3]; Table 4, first column, PTH + 0.2 μg/ml", "result": "54.5 ± 4.1", "unit": "%"},
      {"measurement": "^45 Calcium in Fetal Bone Released into Media (%) after 2 days incubation", "setting": "[3]; Table 4, first column, PTH + 2.0 μg/ml", "result": "56.5 ± 2.6", "unit": "%"},
      {"measurement": "^45 Calcium in Fetal Bone Released into Media (%) after 2 days incubation", "setting": "[3]; Table 4, first column, PTH + 20 μg/ml", "result": "40.7 ± 0.8", "unit": "%"},
      {"measurement": "^45 Calcium in Fetal Bone Released into Media (%) after 2 days incubation", "setting": "[3]; Table 4, first column, PTH + 200 μg/ml", "result": "16.4 ± 1.1", "unit": "%"},
      {"measurement": "^45 Calcium in Fetal Bone Released into Media (%) after 2 days incubation", "setting": "[3]; Table 4, second column, PTH + 0.2 μg/ml", "result": "95.1 ± 1.8", "unit": "%"},
      {"measurement": "^45 Calcium in Fetal Bone Released into Media (%) after 2 days incubation", "setting": "[3]; Table 4, second column, PTH + 2.0 μg/ml", "result": "93.3 ± 2.6", "unit": "%"},
      {"measurement": "^45 Calcium in Fetal Bone Released into Media (%) after 2 days incubation", "setting": "[3]; Table 4, second column, PTH + 20 μg/ml", "result": "50.1 ± 0.8", "unit": "%"},
      {"measurement": "^45 Calcium in Fetal Bone Released into Media (%) after 2 days incubation", "setting": "[3]; Table 4, second column, PTH + 200 μg/ml", "result": "20.4 ± 1.5", "unit": "%"},
      {"measurement": "effect on PTH-enhanced bone resorption, in words", "setting": "[3]; concentrations 0.2-300 μg/ml", "result": "inhibit ^45 calcium release in a dose responsive manner"}
    ]}
  ]
}
